# Data taken from patent US10987359B2, “Oxadiazepinone derivatives and methods of treating hepatitis B infections” (priority 2016, dated 2021).
# pEC50: −log10 of the molar value.
# System: HBV
# Assay: HBV replication inhibition assay (BDNA assay) in HepG2.2.15 cells
# Assay type: cell-based
# Details: Hepatitis B virus, HepG2.2.15, HBV replication assay (BDNA assay), HepG2.2.15 cells; read-out: DNA EC50
# Summary of the method: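 HepG2.2.15 cells with stably integrated HBV were treated with serially diluted compounds at 0.5% DMSO for 6 days, with medium and compound refreshed at day 3. Encapsidated HBV DNA from DNase-treated supernatant was quantified by branched DNA assay. EC50 came from % inhibition versus DMSO, fitted non-linearly.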
row,Structure (SMILES),pEC50
1,"C[C@@H]1Cc2nn3c(c2CN1C(=O)Nc1ccc(F)c(Cl)c1)C(=O)N(C)N=C(CO)C3 [Compound 235, (R)-N-(3-chloro-4-fluorophenyl)-4-(hydroxymethyl)-2,9-dimethyl-1-oxo-1,2,5,8,9,11-hexahydro-10H-pyrido[4′,3′:3,4]pyrazolo[5,1-d][1,2,5]triazepine-10-carboxamide]",7.00 to 9.00
2,"C[C@@H]1Cc2nn3c(c2CN1C(=O)Nc1ccc(F)c(Br)c1)C(=O)N(C)N=C(COCC(F)F)C3 [Compound 236, (R)-N-(3-bromo-4-fluorophenyl)-4-((2,2-difluoroethoxy)methyl)-2,9-dimethyl-1-oxo-1,2,5,8,9,11-hexahydro-10H-pyrido[4′,3′:3,4]pyrazolo[5,1-d][1,2,5]triazepine-10-carboxamide]",7.00 to 9.00
3,"C[C@@H]1Cc2nn3c(c2CN1C(=O)Nc1ccc(F)c(C#N)c1)C(=O)N(C)N=C(COCC(F)F)C3 [Compound 237, (R)-N-(3-cyano-4-fluorophenyl)-4-((2,2-difluoroethoxy)methyl)-2,9-dimethyl-1-oxo-1,2,5,8,9,11-hexahydro-10H-pyrido[4′,3′:3,4]pyrazolo[5,1-d][1,2,5]triazepine-10-carboxamide]",7.00 to 9.00
4,"C[C@@H]1Cc2nn3c(c2CN1C(=O)Nc1ccc(F)c(C(F)(F)F)c1)C(=O)N(C)N=C(COCC(F)F)C3 [Compound 238, (R)-4-((2,2-difluoroethoxy)methyl)-N-(4-fluoro-3-(trifluoromethyl)phenyl)-2,9-dimethyl-1-oxo-1,2,5,8,9,11-hexahydro-10H-pyrido[4′,3′:3,4]pyrazolo[5,1-d][1,2,5]triazepine-10-carboxamide]",6.30 to 7.00
